Two compounds from PMC9697818, “Design, Synthesis and Biological Assessment of Rhodanine-Linked Benzenesulfonamide Derivatives as Selective and Potent Human Carbonic Anhydrase Inhibitors” (Molecules, 2022) can be followed below.

As a reminder, the Ki is a dissociation constant, usually derived from enzyme kinetics or from competition with a known ligand.

What all share (assay): stopped-flow CO2 hydration assay
Holding throughout (type): biochemical

For one test, the target named is T1, hCA XII (Homo sapiens, UniProt O43570).
T1 construct: gene CA12; recombinant, tumor-associated transmembrane isoform
T1 sequence (O43570 30-289 limits assumed): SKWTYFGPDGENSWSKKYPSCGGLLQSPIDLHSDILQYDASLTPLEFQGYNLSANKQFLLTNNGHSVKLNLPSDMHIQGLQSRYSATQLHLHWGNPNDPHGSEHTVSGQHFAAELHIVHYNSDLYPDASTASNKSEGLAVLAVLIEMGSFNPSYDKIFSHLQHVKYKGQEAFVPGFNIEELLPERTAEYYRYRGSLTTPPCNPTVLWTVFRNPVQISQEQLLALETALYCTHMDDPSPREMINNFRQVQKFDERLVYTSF
The method in brief:
(§1)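 Recombinant human carbonic anhydrase isozymes were tested for inhibition by stopped-flow tracking of enzyme-catalysed CO2 hydration. Over 5–10 s, reactions containing 5–12 nM enzyme, 0.2 mM Phenol Red read at 557 nm, 10 mM Hepes (pH 7.4), 10 mM NaClO4 and CO2-saturated water at 25 °C as substrate were followed, after inhibitor and enzyme had been preincubated for 10 min at room temperature. Inhibitor stocks of 10 mM in DMSO-water 1:1 were diluted in assay buffer down to 0.01 nM, giving at least seven concentrations. Inhibition constants (Ki) were obtained by non-linear least-squares fitting with the Cheng–Prusoff equation and represent means of at least three determinations.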

In the next test the target is T2, hCA I (Homo sapiens, UniProt P00915).
T2 construct: gene CA1; recombinant, cytosolic isoform
T2 sequence (P00915 2-261): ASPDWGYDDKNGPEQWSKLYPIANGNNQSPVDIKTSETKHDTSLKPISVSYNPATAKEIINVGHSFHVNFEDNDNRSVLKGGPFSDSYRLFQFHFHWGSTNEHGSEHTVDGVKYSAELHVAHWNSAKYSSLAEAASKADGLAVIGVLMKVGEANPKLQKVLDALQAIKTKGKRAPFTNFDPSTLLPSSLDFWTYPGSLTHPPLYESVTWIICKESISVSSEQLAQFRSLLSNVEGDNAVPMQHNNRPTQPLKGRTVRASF
The method in brief:
as §1

The target of the next test is T3, hCA IX (Homo sapiens, UniProt Q16790).
T3 construct: gene CA9; recombinant, tumor-associated transmembrane isoform
The method in brief: as §1

The target in the next test is T4, hCA II (Homo sapiens, UniProt P00918).
T4 construct: gene CA2; recombinant, cytosolic isoform
In short, it runs like this: as §1

As for `NS(=O)(=O)c1ccc(NC(=O)CN2C(=O)/C(=C3/C(=O)Nc4ccc(C(F)(F)F)cc43)SC2=S)cc1` [9c, (Z)-2-(4-Oxo-5-(2-oxo-5-(trifluoromethyl)indolin-3-ylidene)-2-thioxothiazolidin-3-yl)-N-(4-sulfamoylphenyl)acetamide], the inhibition constant (Ki) at hCA XII stood at 37.8 nM; on hCA I, 319 nM; at hCA IX it was 13.3 nM; at hCA II it was 67.8 nM.

Regarding `NS(=O)(=O)c1ccc(NC(=O)CN2C(=O)/C(=C3/C(=O)Nc4ccc(Cl)cc43)SC2=S)cc1` [9d, (Z)-2-(5-(5-Chloro-2-oxoindolin-3-ylidene)-4-oxo-2-thioxothiazolidin-3-yl)-N-(4-sulfamoylphenyl)acetamide], the Ki was 26.3 nM at hCA XII, 35.8 nM on hCA I, 6 nM on hCA IX and 5.2 nM at hCA II.
